The subject of data set [1] is equine digital blood vessels. Briefly: isolated blood vessel work, isometric tension recording. From the text:
The coronary band veins and the distal artery were dissected from equine hind limbs obtained from abattoir collections (animals euthanased for non related reasons), cut into rings of approximately 3 mm in length and prepared for isometric tension recording—a method established in the laboratory for looking at endothelium intact responses of equine digital.

Data set [2] deals with Tyrosine decarboxylase (TDC). Briefly: inhibition of decarboxylase activity. It counts as biochemical. Conditions: tyrosine to tyramine by TDC. From the text: Tyrosine decarboxylase (TDC) decarboxylases tyrosine to tyramine.
The next data set relates to ponies. The data set can be described thus: effect of dietary fructan carbohydrates on normal and laminitic ponies. It counts as in vivo. An excerpt: Eleven adult, native breed ponies were used in the diet study; 5 normals and 6 predisposed to laminitis (asymptomatic at the time of the study). A basal hay diet was fed for 2 weeks, prior to the inclusion of inulin (sourced from chicory root; 3 g/kg body weight per day), fed in 3 equal feeds. The daily forage ration also included ⅔ hay, by weight, and ⅓ Readigrass® (to act as a source of amino acids). Fecal and blood samples were taken during both diets to measure amine concentration (by HPLC and LC-MS, respectively) and fecal pH.

The test system of data set [3] is streptococci and lactobacilli in equine caecal contents. Briefly: in vitro model of carbohydrate overload: enumeration of caecal streptococci and lactobacilli. Also noted: species or system horses. Conditions: virginiamycin 1 mg/100 ml, with corn starch or inulin. As to the method:
Use of an in vitro model of carbohydrate overload to study the change in populations of caecal streptococci and lactobacilli and to establish whether certain species of these bacteria were capable of producing vasoactive amines from amino acids.
Caecal contents from 10 horses were divided into aliquots and incubated anaerobically with either corn starch or inulin (fructan; both 1 g 100 ml). Samples were taken at 6 h intervals over a 24 h period for enumeration of streptococci, lactobacilli and Gram-negative anaerobes by a dilution method onto standard selective growth media. […]
Effects of carbohydrate overload on numbers of (a) streptococci, (b) lactobacilli and (c) Gram-negative anaerobes in equine caecal contents incubated anaerobically in vitro. […] Bacterial numbers in each aliquot at 6 h intervals were determined by serial dilution of caecal contents in sterile RPS plated onto selective growth medium. […]
Effects of virginiamycin and calcium hydrogen-phosphate on numbers of Streptococcus and Lactobacillus spp. in equine caecal contents induced by incubation with starch or inulin. […] Bacterial numbers were measured at 0 and 24 h, expressed as CFU/ml, and the magnitude of the change over this period was calculated by dividing the number of bacteria present at 24 h by the initial figure (geometric mean±s.e.m. of estimates taken from 4 separate experiments).

[4] abbreviates: inulin diet vs basal hay diet, FIG. 12.

These results are taken from US20090232853A1, “TREATMENT OF LAMINITIS” (priority 2005, published 2009).

Turning to `CC(=O)N[C@@H](CS)C(=O)O` [NAC, N-acetyl cysteine], the “relaxation of isolated digital blood vessels” value in data set [1] (antioxidant added to the medium, vs control, FIG. 14) was “increase the relaxation above that of the control”. For the same compound, the “contraction of digital veins in response to vasoactive amines” value in data set [1] (pre incubation in the medium, response to Tryptamine, FIG. 15) is “reduced contraction”.
Turning to `NC(CO)C(=O)NNCc1ccc(O)c(O)c1O` (stereo not drawn) [benserazide], the production of tyramine entry in data set [2] is “inhibited”.
Still for that read-out and setting: to `C[C@@](Cc1ccc(O)c(O)c1)(NN)C(=O)O` [carbidopa] belongs “inhibited”.
With `O=c1c(-c2ccc(O)cc2)coc2cc(O)cc(O)c12` [genestin], the “reduction of contraction of digital veins in response to vasoactive amines” value in data set [1] (flavonoid added to the medium, response to Tryptamine, FIG. 15) was determined as 30%.
On to inulin, for which the signs of laminitis result in the data set on ponies (inulin 3 g/kg body weight per day in 3 feeds, 5 normal and 6 laminitis-predisposed ponies) is on record as “No animal showed any signs of laminitis”. For the same compound, in the data set on ponies (setting [4]), the “increase in tryptamine concentration” value is given as 58.6% and the “increase in tyramine concentration” value was 23.3%.
For the compound virginiamycin, the “effect on carbohydrate-induced increases in numbers of streptococci and lactobacilli” value in data set [3] was “abrogated”.
